{"source": "patent US20120252729A1", "about": "“PTH-CONTAINING THERAPEUTIC/PROPHYLACTIC AGENT FOR OSTEOPOROSIS, CHARACTERIZED IN THAT PTH IS ADMINISTERED ONCE A WEEK IN A UNIT DOSE OF 100 TO 200 UNITS” (ASAHI KASEI PHARMA CORPORATION, priority 2009, published 2012)", "key": {"[1]": {"system": "patients diagnosed with primary osteoporosis", "experiment": "Working Example 1: new vertebral fractures by x-ray (method of Genant et al.)", "type": "in vivo, human", "experimental": "Both the 5 and 100 unit groups were administered two tablets of a calcium agent (containing 500 mg of precipitated calcium carbonate [200 mg as calcium] per tablet) once a day.\nThe osteoporosis patients were classified as condition shown in Table 1 based on the bone fracture risk factors present, as in Non-patent Reference 13, and compared. High-risk patients were defined as having all three factors involving age, prevalent vertebral fractures, and bone density or bone atrophy; low-risk patients were defined as other than the above."}, "[2]": {"system": "high-risk patients diagnosed with primary osteoporosis", "experiment": "Working Example 2: worsening vertebral fractures", "type": "in vivo, human", "conditions": "200 units weekly, FAS", "excerpt": "The vertebral fractures in the present invention also include both new fractures and worsening fractures. […] New and worsening [fractures] can be classified by the grade increase pattern according to the criteria of Genant. Concretely speaking, a fracture is diagnosed as a new fracture when a change is found from grade 0 to grade 1, 2, or 3. It can be regarded as a worsening fracture when a change is found from grade 1 to grade 2 or 3 or from grade 2 to grade 3. The vertebral height was measured according to the method of Inoue et al. (Non-patent reference 35) and the method of Hayashi et al. (Non-patent Reference 36) to accurately assess the changes in grade.\nThe incidence of bone fractures was checked by frontal and lateral x-rays of the fourth thoracic to the fourth lumbar spine taken at the start and every 24 weeks thereafter.\nThe efficacy of the test drug on worsening bone fractures was studied."}, "[3]": {"conditions": "in vivo", "procedure": "The ratio of the urinary calcium value/urinary creatine value was compared before beginning administration and in the weeks of observation. The urinary calcium was measured at the start, after 12 weeks, after 24 weeks, after 48 weeks, and after 72 weeks."}, "[4]": {"system": "osteoporosis patients having normal renal function, mild or moderate renal dysfunction", "conditions": "in vivo"}, "[5]": {"system": "high-risk patients diagnosed with primary osteoporosis", "experiment": "Working Example 2: bone density of lumbar spine and femur by DXA", "type": "in vivo, human", "conditions": "200 units weekly; for Change in lumbar vertebral density (%), median: after 72 W"}, "[6]": {"conditions": "high-risk patients, 5 units, after 26 W"}, "[7]": {"conditions": "high-risk patients, 5 units, after 52 W"}, "[8]": {"conditions": "high-risk patients, 5 units, after 78 W"}, "[9]": {"conditions": "high-risk patients, 5 units, after 104 W"}, "[10]": {"conditions": "high-risk patients, 5 units, after 130 W"}, "[11]": {"conditions": "high-risk patients, 100 units, after 26 W"}, "[12]": {"conditions": "high-risk patients, 100 units, after 52 W"}, "[13]": {"conditions": "high-risk patients, 100 units, after 78 W"}, "[14]": {"conditions": "high-risk patients, 100 units, after 104 W"}, "[15]": {"conditions": "high-risk patients, 100 units, after 130 W"}, "[16]": {"conditions": "low-risk patients, 5 units, after 26 W"}, "[17]": {"conditions": "low-risk patients, 5 units, after 52 W"}, "[18]": {"conditions": "low-risk patients, 5 units, after 78 W"}, "[19]": {"conditions": "low-risk patients, 5 units, after 104 W"}, "[20]": {"conditions": "low-risk patients, 5 units, after 130 W"}, "[21]": {"conditions": "low-risk patients, 100 units, after 26 W"}, "[22]": {"conditions": "low-risk patients, 100 units, after 52 W"}, "[23]": {"conditions": "low-risk patients, 100 units, after 78 W"}, "[24]": {"conditions": "low-risk patients, 100 units, after 104 W"}, "[25]": {"conditions": "low-risk patients, 100 units, after 130 W"}}}
{"substance": "teriparatide acetate", "values": [{"measurement": "New vertebral fractures every 26 weeks: Incidence (%)", "setting": "[1]; [6]", "result": 9.5, "unit": "%"}, {"measurement": "New vertebral fractures every 26 weeks: No. of fractures", "setting": "[1]; [6]", "result": 8}, {"measurement": "New vertebral fractures every 26 weeks: No. with fractures", "setting": "[1]; [6]", "result": 6}, {"measurement": "New vertebral fractures every 26 weeks: Incidence (%)", "setting": "[1]; [7]", "result": 11.1, "unit": "%"}, {"measurement": "New vertebral fractures every 26 weeks: No. of fractures", "setting": "[1]; [7]", "result": 9}, {"measurement": "New vertebral fractures every 26 weeks: No. with fractures", "setting": "[1]; [7]", "result": 7}, {"measurement": "New vertebral fractures every 26 weeks: Incidence (%)", "setting": "[1]; [8]", "result": 7.0, "unit": "%"}, {"measurement": "New vertebral fractures every 26 weeks: No. of fractures", "setting": "[1]; [8]", "result": 4}, {"measurement": "New vertebral fractures every 26 weeks: No. with fractures", "setting": "[1]; [8]", "result": 4}, {"measurement": "New vertebral fractures every 26 weeks: Incidence (%)", "setting": "[1]; [9]", "result": 2.9, "unit": "%"}, {"measurement": "New vertebral fractures every 26 weeks: No. of fractures", "setting": "[1]; [9]", "result": 1}, {"measurement": "New vertebral fractures every 26 weeks: No. with fractures", "setting": "[1]; [9]", "result": 1}, {"measurement": "New vertebral fractures every 26 weeks: No. of fractures", "setting": "[1]; [10]", "result": 0}, {"measurement": "New vertebral fractures every 26 weeks: No. with fractures", "setting": "[1]; [10]", "result": 0}, {"measurement": "New vertebral fractures every 26 weeks: Incidence (%)", "setting": "[1]; [11]", "result": 2.0, "unit": "%"}, {"measurement": "New vertebral fractures every 26 weeks: No. of fractures", "setting": "[1]; [11]", "result": 1}, {"measurement": "New vertebral fractures every 26 weeks: No. with fractures", "setting": "[1]; [11]", "result": 1}, {"measurement": "New vertebral fractures every 26 weeks: Incidence (%)", "setting": "[1]; [12]", "result": 2.0, "unit": "%"}, {"measurement": "New vertebral fractures every 26 weeks: No. of fractures", "setting": "[1]; [12]", "result": 1}, {"measurement": "New vertebral fractures every 26 weeks: No. with fractures", "setting": "[1]; [12]", "result": 1}, {"measurement": "New vertebral fractures every 26 weeks: Incidence (%)", "setting": "[1]; [13]", "result": 2.2, "unit": "%"}, {"measurement": "New vertebral fractures every 26 weeks: No. of fractures", "setting": "[1]; [13]", "result": 1}, {"measurement": "New vertebral fractures every 26 weeks: No. with fractures", "setting": "[1]; [13]", "result": 1}, {"measurement": "New vertebral fractures every 26 weeks: No. of fractures", "setting": "[1]; [14]", "result": 0}, {"measurement": "New vertebral fractures every 26 weeks: No. with fractures", "setting": "[1]; [14]", "result": 0}, {"measurement": "New vertebral fractures every 26 weeks: No. of fractures", "setting": "[1]; [15]", "result": 0}, {"measurement": "New vertebral fractures every 26 weeks: No. with fractures", "setting": "[1]; [15]", "result": 0}, {"measurement": "New vertebral fractures every 26 weeks: No. of fractures", "setting": "[1]; [16]", "result": 0}, {"measurement": "New vertebral fractures every 26 weeks: No. with fractures", "setting": "[1]; [16]", "result": 0}, {"measurement": "New vertebral fractures every 26 weeks: Incidence (%)", "setting": "[1]; [17]", "result": 4.8, "unit": "%"}, {"measurement": "New vertebral fractures every 26 weeks: No. of fractures", "setting": "[1]; [17]", "result": 1}, {"measurement": "New vertebral fractures every 26 weeks: No. with fractures", "setting": "[1]; [17]", "result": 1}, {"measurement": "New vertebral fractures every 26 weeks: No. of fractures", "setting": "[1]; [18]", "result": 0}, {"measurement": "New vertebral fractures every 26 weeks: No. with fractures", "setting": "[1]; [18]", "result": 0}, {"measurement": "New vertebral fractures every 26 weeks: No. of fractures", "setting": "[1]; [19]", "result": 0}, {"measurement": "New vertebral fractures every 26 weeks: No. with fractures", "setting": "[1]; [19]", "result": 0}, {"measurement": "New vertebral fractures every 26 weeks: No. of fractures", "setting": "[1]; [20]", "result": 0}, {"measurement": "New vertebral fractures every 26 weeks: No. with fractures", "setting": "[1]; [20]", "result": 0}, {"measurement": "New vertebral fractures every 26 weeks: Incidence (%)", "setting": "[1]; [21]", "result": 8.3, "unit": "%"}, {"measurement": "New vertebral fractures every 26 weeks: No. of fractures", "setting": "[1]; [21]", "result": 2}, {"measurement": "New vertebral fractures every 26 weeks: No. with fractures", "setting": "[1]; [21]", "result": 1}, {"measurement": "New vertebral fractures every 26 weeks: No. of fractures", "setting": "[1]; [22]", "result": 0}, {"measurement": "New vertebral fractures every 26 weeks: No. with fractures", "setting": "[1]; [22]", "result": 0}, {"measurement": "New vertebral fractures every 26 weeks: No. of fractures", "setting": "[1]; [23]", "result": 0}, {"measurement": "New vertebral fractures every 26 weeks: No. with fractures", "setting": "[1]; [23]", "result": 0}, {"measurement": "New vertebral fractures every 26 weeks: No. of fractures", "setting": "[1]; [24]", "result": 0}, {"measurement": "New vertebral fractures every 26 weeks: No. with fractures", "setting": "[1]; [24]", "result": 0}, {"measurement": "New vertebral fractures every 26 weeks: No. of fractures", "setting": "[1]; [25]", "result": 0}, {"measurement": "New vertebral fractures every 26 weeks: No. with fractures", "setting": "[1]; [25]", "result": 0}, {"measurement": "Difference between test drug group and control group after 72 W (%), incidence of worsening fractures", "setting": "[2]", "result": 1.8, "unit": "%"}, {"measurement": "Worsening fractures: No. with fractures", "setting": "[2]", "result": 1}, {"measurement": "Incidence of worsening fractures (%)", "setting": "[2]; after 24 W", "result": 0.4, "unit": "%"}, {"measurement": "Incidence of worsening fractures (%)", "setting": "[2]; after 48 W", "result": 0.4, "unit": "%"}, {"measurement": "Incidence of worsening fractures (%)", "setting": "[2]; after 72 W", "result": 0.4, "unit": "%"}, {"measurement": "Average percentage change in the urinary calcium value", "setting": "[3]", "result": 3.2, "unit": "%"}, {"measurement": "Median percentage change in the urinary calcium value", "setting": "[3]", "result": "−14.7", "unit": "%"}, {"measurement": "Side effects Yes (%)", "setting": "[4]", "result": 36.8, "unit": "%"}, {"measurement": "Side effects, point estimate of the difference", "setting": "[4]", "result": 29.1}, {"measurement": "Side effects: No (%)", "setting": "[4]", "result": 55.1, "unit": "%"}, {"measurement": "Side effects: No, No. of cases", "setting": "[4]", "result": 27}, {"measurement": "Side effects: Yes (%)", "setting": "[4]", "result": 44.9, "unit": "%"}, {"measurement": "Side effects: Yes, No. of cases", "setting": "[4]", "result": 22}, {"measurement": "Change in lumbar vertebral density (%), median", "setting": "[5]; mild impairment (≧50-<80)", "result": 6.6, "unit": "%"}, {"measurement": "Change in lumbar vertebral density (%), median", "setting": "[5]; normal (≧80)", "result": 8.0, "unit": "%"}, {"measurement": "Change in lumbar vertebral density (%), mean", "setting": "[5]; normal (≧80), final", "result": 7.5, "unit": "%"}]}
